{"source": "patent US20120316158A1", "about": "“OPHTHALMIC SOLUTION FOR TREATING OCULAR INFECTION COMPRISING LEVOFLOXACIN OR SALT THEREOF OR SOLVATE OF THE SAME, METHOD FOR TREATING OCULAR INFECTION, LEVOFLOXACIN OR SALT THEREOF OR SOLVATE OF THE SAME, AND USE THEREOF” (priority 2010, published 2012)", "key": {"[1]": {"tested_on": "methicillin-sensitive Staphylococcus aureus", "conditions": "isolates from a patient suffering from bacterial keratitis; cited from earlier work"}, "MSSA": {"tested_on": "MSSA", "assay": "MIC of clinical isolate from a patient suffering from an external ocular infection", "assay_type": "cell-based", "conditions": "Staphylococcus aureus; MSSA clinical isolate from a patient with an external ocular infection", "experimental": "MSSA (MIC=0.5 μg/mL with respect to levofloxacin) was isolated from a patient suffering from an external ocular infection."}}, "data": [{"smiles": "C[C@H]1COc2c(N3CCN(C)CC3)c(F)cc3c(=O)c(C(=O)O)cn1c23", "note": "[levofloxacin, Levofloxacin]", "values": [{"measurement": "clinically isolated MSSA resistant to levofloxacin", "setting": "[1]", "value": "about 10%"}, {"measurement": "MIC", "setting": "MSSA", "value": 0.5, "unit": "µg/mL"}]}]}
